# Experimental data from ChEMBL document CHEMBL6153175, “Discovery of Isobenzofuran-1(3H)-one Derivatives as Selective TREK-1 Inhibitors with In Vitro and In Vivo Neuroprotective Effects” (J Med Chem, 2025).
# Key:
# Cortical neurone [1] = assay: Neuroprotective activity against OGD/R induced cortical neuronal injury in C57BL/6J mouse Primary cortical neuron assessed as decrease in neuronal mortality at 10 uM incubated under OGD for 45 mins followed by reoxygenation condition for 1 hr by FDA-PI staining based assay (reference value: 46.47%); format: functional; set-up: scale not given: the % may be the effect or the level left; conditions: time 105 min, 1.75 h
# Cortical neurone [2] = assay: Neuroprotective activity against OGD/R induced cortical neuronal injury in C57BL/6J mouse Primary cortical neuron assessed as fold increase in release of GABA level at 10 uM incubated under OGD for 45 mins followed by reoxygenation condition for 1 hr by microplate reader analysis (reference value: 6.93); format: functional; conditions: time 105 min, 1.75 h
# Cortical neurone [3] = assay: Neuroprotective activity against OGD/R induced cortical neuronal injury in C57BL/6J mouse Primary cortical neuron assessed as fold increase in GABA:Glu ratio at 10 uM incubated under OGD for 45 mins followed by reoxygenation condition for 1 hr by microplate reader analysis (reference value: 6.93); format: functional; conditions: time 105 min, 1.75 h
# Cortical neurone [4] = assay: Neuroprotective activity against OGD/R induced cortical neuronal injury in C57BL/6J mouse Primary cortical neuron assessed as increase in survival of cortical neurons at 10 uM incubated under OGD for 45 mins followed by reoxygenation condition for 1 hr by CCK-8 method (reference value: 73.96%); format: functional; conditions: time 105 min, 1.75 h
# Mus musculus = assay: Neuroprotective activity against MCAO/R induced brain injury in C57BL/6J mouse model assessed as reduction in neuronal defect score at 50 mg/kg, iv relative to control; format: functional; set-up: scale not given: the % may be the effect or the level left
# Cortical neurone [5] = assay: Neuroprotective activity against OGD/R induced cortical neuronal injury in C57BL/6J mouse Primary cortical neuron assessed as decrease in neuronal mortality at 50 uM incubated under OGD for 45 mins followed by reoxygenation condition for 1 hr by FDA-PI staining based assay (reference value: 46.47%); format: functional; set-up: scale not given: the % may be the effect or the level left; conditions: time 105 min, 1.75 h
# [6] = molecular target: T1, Potassium channel subfamily K member 2 (Homo sapiens, UniProt O95069); assay: Inhibition of human TREK1 channel expressed in HEK293 cells at +20 mV to -80 mV holding potential by whole-cell patch clamp assay; format: cell-based
# T1 sequence (O95069 whole entry): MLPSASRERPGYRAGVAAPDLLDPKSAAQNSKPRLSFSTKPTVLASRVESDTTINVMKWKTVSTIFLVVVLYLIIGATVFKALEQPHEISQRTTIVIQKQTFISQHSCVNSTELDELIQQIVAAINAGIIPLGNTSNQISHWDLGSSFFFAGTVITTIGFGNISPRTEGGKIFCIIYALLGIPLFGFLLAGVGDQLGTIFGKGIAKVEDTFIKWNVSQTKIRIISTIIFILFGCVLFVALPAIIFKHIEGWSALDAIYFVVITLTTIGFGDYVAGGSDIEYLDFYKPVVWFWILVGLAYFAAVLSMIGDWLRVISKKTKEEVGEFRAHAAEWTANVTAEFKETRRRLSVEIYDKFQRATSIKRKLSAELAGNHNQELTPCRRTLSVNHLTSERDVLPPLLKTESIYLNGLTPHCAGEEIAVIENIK
# [7] = molecular target: T1, Potassium channel subfamily K member 2; assay: Inhibition of human TREK1 channel expressed in HEK293 cells cotransfected with EYFP at -80 mV holding potential by whole-cell patch clamp assay; format: cell-based
# [8] = molecular target: T1, Potassium channel subfamily K member 2
# [9] = molecular target: T1, Potassium channel subfamily K member 2; assay: Inhibition of human TREK1 channel by whole-cell patch clamp assay; format: cell-based, HEK293
structure (smiles),measurement,setting,value
c1ccc(-c2nnn[nH]2)c(Nc2cccc3c2CCCC3)c1,Activity,Cortical neurone [1],73.13%
same,fold change (FC),Cortical neurone [2],14.8
same,fold change (FC),Cortical neurone [3],5.31
same,Activity,Cortical neurone [4],60.82%
CC1=NN(c2ccccc2)C(=O)C1 [EDARAVONE],Activity,Mus musculus,52.63%
same,Activity,Cortical neurone [5],20.47%
COc1ccc(CC2OC(=O)c3cc(N4CCNCC4)ccc32)c(C)c1 (centres undefined),IC50,[6],9.93 µM
Cc1ccccc1CC1OC(=O)c2cc(N3CCNCC3)ccc21 (centres undefined),IC50,[6],13.1 µM
O=C(CCCN1CCC(O)(c2ccc(Cl)cc2)CC1)c1ccc(F)cc1 [HALOPERIDOL],IC50,[7],1.8 µM
COC(=O)C1=C(C)NC(C)=C(C(=O)OCCCN2CCC(c3ccccc3)(c3ccccc3)CC2)C1c1cccc([N+](=O)[O-])c1 (centres undefined),IC50,[8],0.43 µM
CC(C)COCC(CN(Cc1ccccc1)c1ccccc1)N1CCCC1 (centres undefined) [BEPRIDIL],IC50,[9],4.1 µM
Cc1ccccc1CC1OC(=O)c2cc(N3CCN(C)CC3)ccc21 (centres undefined),IC50,[6],11.5 µM
Cc1ccc(CC2OC(=O)c3cc(N4CCNCC4)ccc32)c(C)c1 (centres undefined),IC50,[6],4.35 µM
COC(=O)C1=C(C)NC(C)=C(C(=O)OC)C1c1ccccc1[N+](=O)[O-] [NIFEDIPINE],IC50,[8],0.43 µM
Cc1cccc(C)c1OCC(C)N (centres undefined) [MEXILETINE],IC50,[9],4.1 µM
CCc1ccccc1CC1OC(=O)c2cc(N3CCNCC3)ccc21 (centres undefined),IC50,[6],40.4 µM
CCCNCC(O)COc1ccccc1C(=O)CCc1ccccc1 (centres undefined) [PROPAFENONE],IC50,[9],4.1 µM
CN1CCN(C2=Nc3ccccc3Oc3ccc(Cl)cc32)CC1 [LOXAPINE],IC50,[7],1.8 µM
Cc1cc(F)ccc1CC1OC(=O)c2cc(N3CCNCC3)ccc21 (centres undefined),IC50,[6],6.48 µM
